Test results taken from patent publication US6200966A, “Compositions for inhibiting airway wall inflammation” (Amrad Operations Pty. Ltd., priority 1996, dated 2001).
Entries after “also recorded” stand apart in the source; their conditions may differ.

What was measured:
[1] = tested on: human cultured airway smooth muscle cells; test: Protein synthesis: [3H]-leucine incorporation; type: cell-based; conditions: for [3H]-leucine incorporation: Table 5, unstimulated cells, mean
Method: (§1) Human bronchial airway smooth muscle was obtained from macroscopically normal lung resection specimens from lung transplant donors or recipients provided by the Alfred Hospital (Melbourne). Cultures were prepared as previously described in detail (Tomlinson et al., 1994). Briefly, the tissue was partially digested in Dulbecco's Modified Eagle's Medium (DMEM), [supplemented with 2 mM L-glutamine, 100 μg/ml streptomycin, 100 U/ml penicillin-G, 2 μg/ml amphotericin B, and 0.25% w/v bovine serum albumin (BSA)] containing 3 mg/ml collagenase for 30 minutes at 37° C. and approximately 0.5 g smooth muscle was further digested by a 2 hour incubation in 0.5 mg/ml elastase, followed by an 18 hour incubation in collagenase (3 mg/ml) at 37° C. Cell suspensions ere centrifuged (10 min, 100×g, 25° C.), washed three times in supplemented DMEM, resuspended in 25 ml DMEM containing 10% (v/v) heat-inactivated foetal calf serum (FCS), seeded into 25 cm^2 Falcon culture flasks and incubated (37° C., 5% CO2) for 7 to 10 days until monolayer confluence was reached. Cells were then harvested weekly by 10 min exposure to 0.5% trypsin, 1 mM EDTA and passaged at a 1:3 split ratio into 75 cm^2 Falcon culture flaskes. Cells at passage numbers 3 to 15 were used for experiments.
(§2) Cells were subcultured into 24-well plates at a 1:3 ratio and allowed to grow to monolayer confluency over a 72-96 hour period in an atmosphere of 5% CO2 in air at 37° C. The serum-containing medium was replaced with serum-free DMEM for a 24 hour period to produce growth arrest. In some experiments, the cells were pretreated with 2-methoxyestradiol 30 min before the addition of mitogen. The stimulant (mitogen) was added to the appropriate wells together with a supplement containing insulin, transferrin, and selenium (Monomed A, 1% v/v). Monomed A was added to provide progression factors which are essential for the mitogenic activity of growth factors such as thrombin, epidermal growth factor (EGF) and basic fibroblast growth factor (bFGF) (Stewart et al., 1995a). Mitogens and inhibitors were left in contact with cells from the time of addition until the end of the experiment, unless indicated otherwise. Cells were incubated for 24 hours (37° C., 5% CO2) before being pulsed with [^3 H]-thymidine (1 μCi/ml for four hours) to measure incorporation of radiolabel into newly synthesized DNA, according to out previous study (Stewart et al., 1995). Incorporation of radioactivity was determined by filtration at the end of the pulse-labelling period. The medium containing the radioactivity was aspirated and the cells were lysed by addition of 200 μl of 0.1M NaOH. The DNA was immobilised by filtration in a binding harvester (Packard Filtermate 196) on glass fibre filters (Packard, standard), which were then washed with 3×3 ml volumes of distilled water and a single 1 ml volume of 100% ethanol. The dried filters were counted in a Packard Topcount liquid scintillation counter. Protein synthesis rates were determined in experiments of analogous design to those described above, but [^3 H]-leucine replaced [^3 H]-thymidine in the pulsing incubation of 4 hours. Furthermore, in experiments to determine the effects of mitogens and 2-methoxyestradiol on the rate of protein synthesis, incubations with mitogen were carried out for a period of 48 hours. The longer duration of these experiments was required to allow sufficient time for cell division to occur.
(§3) Each treatment in an individual experiment was carried out in quadruplicate for DNA and protein synthesis experiments. Each experiment was performed in at least three different cultures obtained from three different individuals. For cell counting, single incubations were carried out in three cultures. Results are presented as grouped data from multiple cultures and are expressed as mean ±S. E. of n cultures. The degree of increment was calculated by dividing the response of treated wells by that of the control wells on the same 24-well plate.

[2] = tested on: human cultured airway smooth muscle cells; test: DNA synthesis: [3H]-thymidine incorporation; type: cell-based
Method: as §1, §2, §3

[3] = tested on: human cultured airway smooth muscle cells; test: Protein synthesis: [3H]-leucine incorporation; type: cell-based; conditions: Table 5, unstimulated cells, mean
[4] = tested on: airway smooth muscle cells; test: Morphological changes (cell rounding); type: cell-based, human
[5] = tested on: cultured airway smooth muscle; conditions: cited from earlier work; for mitogenic activity on airway smooth muscle: various species
[6] = tested on: endothelial cells and fibroblasts; conditions: actively proliferating or non-quiescent; cited from earlier work

C[C@]12CC[C@@H]3c4cc(O)c(O)cc4CC[C@H]3[C@@H]1CC[C@@H]2O [2-hydroxyestradiol, 1,3,5[10]-estratriene-2,3,17β-triol]
[3H]-leucine incorporation ([1]; concentration 0.3): 107 % control
[3H]-leucine incorporation ([1]; concentration 1.0): 94 % control
[3H]-leucine incorporation ([1]; concentration 3.0): 56 % control
DNA synthesis in response to FCS (1%), 3 and 10 μM ([2]; FCS 1%): inhibited DNA synthesis
FCS (1%)-stimulated DNA synthesis, lower concentrations ([2]; FCS 1%): increased DNA synthesis
[3H]-leucine incorporation ([3]; concentration 10.0): 51 % control

COc1cc2c(cc1O)CC[C@@H]1[C@@H]2CC[C@]2(C)C(=O)CC[C@@H]12 [2-methoxyestrone]
concentration-response of enhancement of thrombin-stimulated DNA synthesis ([2]; thrombin): bell-shaped concentration-response curve
enhancement of thrombin-stimulated DNA synthesis, 10 μM ([2]; thrombin 0.3 U/ml, 10 μM): level of enhancement declined at 10 μM
thrombin-stimulated DNA synthesis (analogues) ([2]; thrombin 0.3 U/ml, up to 3 μM): enhanced thrombin-stimulated DNA synthesis

NCCc1c[nH]c2ccc(O)cc12 [5HT, Serotonin, reference compound]
incorporation of [3H]-leucine by serotonin ([1]; 5HT 10 nM): increased incorporation of [^3 H]-leucine
incorporation of [3H]-thymidine by serotonin ([2]; 5HT 0.1 nM up to 10 μM): no effect

C[C@]12CC[C@@H]3c4ccc(O)cc4CC[C@H]3[C@@H]1CC[C@@H]2O [17β-estradiol, 1,3,5[10]-estratriene-3, 17β-diol, reference compound]
[3H]-leucine incorporation ([1]; concentration 0.3): 103 % control
[3H]-leucine incorporation ([1]; concentration 3.0): 87 % control
FCS (1%)-stimulated DNA synthesis, 10 μM ([2]; FCS 1%, 10 μM): inhibition was observed at 10 μM
DNA synthesis in response to FCS (1%), 3 and 10 μM ([2]; FCS 1%): inhibited DNA synthesis
FCS (1%)-stimulated DNA synthesis, lower concentrations ([2]; FCS 1%): enhanced; also recorded: increased DNA synthesis
[3H]-leucine incorporation ([3]; concentration 1.0): 89 % control
[3H]-leucine incorporation ([3]; concentration 10.0): 100 % control

CC#C[C@]1(O)CC[C@H]2[C@@H]3CCC4=CC(=O)CCC4=C3[C@@H](c3ccc(N(C)C)cc3)C[C@@]21C [RU 486, reference compound]
shape changes in response to colchicine or 2-methoxyestradiol ([4]; RU 486 as antagonist): reduced the shape changes
effect on inhibition of DNA synthesis by 2-methoxyestradiol ([2]; RU 486 (1 μM), 2-methoxyestradiol 3 μM, FCS 1%): no effect

CCCCC[C@H](O)/C=C/[C@@H]1[C@@H](C/C=C\CCCC(=O)O)[C@H]2CO[C@@H]1C2 [U46619]
mitogenic activity on airway smooth muscle [5]: only weakly active

COc1cc2c(c(OC)c1OC)-c1ccc(OC)c(=O)cc1[C@@H](NC(C)=O)CC2 [colchicine, reference compound]
shape changes ([4]; colchicine 0.1-10 μM): similar

C[C@@H]1C[C@H]2[C@@H]3CCC4=CC(=O)C=C[C@]4(C)[C@@]3(F)[C@@H](O)C[C@]2(C)[C@@]1(O)C(=O)CO [dexamethasone]
effect on proliferation of cultured airway smooth muscle [5]: anti-proliferative effect

NCCc1c[nH]cn1 [histamine]
mitogenic activity on airway smooth muscle [5]: completely inactive

EGF: epidermal growth factor
DNA synthesis ([3H]-thymidine incorporation) over unstimulated ([2]; 3 nM EGF, fold series): 4.5±0.7
mitogenic activity on airway smooth muscle [5]: most effective proliferative agents

bFGF: human recombinant basic FGF
DNA synthesis ([3H]-thymidine incorporation) over unstimulated ([2]; 300 pM bFGF, fold series): 22.5±5.3
mitogenic activity on airway smooth muscle [5]: most effective proliferative agents

endothelin-1
mitogenic activity on airway smooth muscle [5]: only weakly active

heparin [reference compound]
effect on proliferation of cultured airway smooth muscle [5]: inhibit proliferation of airway smooth muscle cells
proliferation of endothelial cells and fibroblasts [6]: enhance endothelial cell proliferation

thrombin: thrombin (bovine plasma), mitogen
DNA synthesis ([3H]-thymidine incorporation) over unstimulated ([2]; 0.3 U/ml thrombin): 8.4±3.1 fold
mitogenic activity on airway smooth muscle [5]: effective growth factor
